From paper PMC8230863 (The Journal of Venomous Animals and Toxins Including …, 2021)
Bridge positions count the residues as written; N and C are the ends. Peptide text beside a SMILES is read from it.

Legend:
Format in all cases: cell-based
[1] = test system: calcium channel currents in rat DRG neurons
human Cav2.2 = conditions: 10 μM; SD
[2] = test system: sodium channel currents in rat DRG neurons; conditions: 10 μM; n = 3
[3] = test system: potassium channel currents in rat DRG neurons; conditions: 10 μM

SMILES: CSCC[C@@H]1NC(=O)[C@H](CCC(N)=O)NC(=O)[C@@H]2CSSC[C@@H](C(=O)N3CCC[C@H]3C(N)=O)NC(=O)[C@@H]3CSSC[C@H](NC(=O)[C@@H](NC(=O)CNC(=O)[C@@H](N)CCC(N)=O)CSSC[C@H](NC(=O)[C@H](C)NC(=O)[C@H](C)NC1=O)C(=O)N[C@@H](CC(N)=O)C(=O)N1CCC[C@H]1C(=O)N1CCC[C@H]1C(=O)N1CCC[C@H]1C(=O)N3)C(=O)N1CCC[C@H]1C(=O)N1CCC[C@H]1C(=O)NCC(=O)N[C@@H](C(C)C)C(=O)N2 [Vr3a] (H-QGCCPPGVCQMAACNPPPCCP-NH2; disulfide 3-14, 4-19, 9-20)
- inhibition of the peak calcium currents ([1]; 10 μM, SD): 31.26% ± 4.53%
- shift in the current-voltage relationship of calcium channels ([1]; 10 μM, n = 3): do not induce a shift
- IC50 ([1]; SD): 19.3 ± 4.32 µM
- inhibition of human Cav2.2 currents (human Cav2.2): 12.86% ± 4.93%
- effect on the peak of the sodium currents [2]: no effects
- shift in the activation curve of sodium channels (change of V50) [2]: ~ 10 mV
- shift in the current-voltage relationship of sodium channels [2]: ~ 10 mV
- shift in the inactivation curve of sodium channels (change of V50) [2]: ~ 5 mV
- shift in the recovery curve, delaying sodium channel recovery [2]: ~ 0.002 second
- increase of the peak potassium currents ([3]; SD): 19.61 ± 5.12%
- shift in the current-voltage relationship of potassium channels ([3]; n = 3): do not induce a shift
